# Read-outs that look alike come from different tables or passages of the source.
# How the values were obtained:
# A2780 cells = assay: In vitro cytotoxicity in ovarian cancer cells, MTS, 72 h; type: cell-based; settings: Homo sapiens; A2780, 72 h, DHA concentration; read-out: IC50 of DHA (numbers in parenthesis)
# Procedure: (§1) A2780, A2780/CDDP, and SKOV-3 cells were seeded into 96-well plate at 2000 cells/well for 24 h. Afterwards cells were treated with free DHA or Zn/DHA at various concentrations and incubated for another 72 h. The cell viability was then determined via MTS assay by microplate reader.
# (§2) A2780, A2780/CDDP, and SKOV-3 cells were seeded into 96-well plate at 2000 cells/well for 24 h. Afterwards cells were treated with different formulations at various concentrations and incubated for another 72 h. The cell viability was then determined via MTS assay by microplate reader.
# A2780/CDDP cells [1] = assay: as above; type: cell-based
# Procedure: as §1, §2
# SKOV-3 cells = assay: as above; type: cell-based; settings: Homo sapiens, SK-OV-3; SKOV-3, 72 h, DHA concentration; read-out: IC50 of DHA (numbers in parenthesis)
# Procedure: as §1, §2
# CT26 cells [2] = assay: In vitro cytotoxicity of NCP-2/DHA; type: cell-based, murine
# Procedure: (§3) The cytotoxicity of NCP-2/DHA was evaluated against two colon cancer cell lines CT26 and MC38. […] The combination index (CI50) for the two drugs was lower than 1 in some drug effect levels, indicating the syngestic effect between two drugs.
# MC38 cells [3] = assay: In vitro cytotoxicity of NCP-2/DHA; type: cell-based, murine
# Procedure: as §3
# CT26 cells [4] = assay: In vitro cytotoxicity of NCP-3/DHA; type: cell-based, murine
# Procedure: (§4) The cytotoxicity of NCP-3/DHA was evaluated against two colon cancer cell lines CT26 and MC38.
# MC38 cells [5] = assay: In vitro cytotoxicity of NCP-3/DHA; type: cell-based, murine
# Procedure: as §4
# A2780/CDDP cells [6] = assay: In vitro cytotoxicity of cisplatin, OTS167 and NCP-1/OTS167; type: cell-based
# Procedure: The cytotoxicity of NCP-1/OTS167 with different molar ratio was then evaluated.
# CT26 cells [7] = assay: In vitro cytotoxicity of NCP-2/PTX, MTS; type: cell-based, murine; settings: read-out: Oxaliplatin IC50
# Procedure: (§5) The cytotoxicity of NCP-2/PTX was evaluated against two colorectal cancer cells including murine colorectal adenocarcinoma CT26 and murine colorectal carcinoma MC38. By combining two chemotherapeutic agents with vastly different solubility requirements, NCP-2/PTX elicited substantial anticancer efficacy owing to synergy between the drugs.
# (§6) The IC50 of oxaliplatin was substantially lower than that of paclitaxel by MTS assay, likely due to the hydrophobicity of paclitaxel. Paclitaxel was prepared in a stock solution of 3:1 ethanol:water ratio at 1 mg/ml before subsequent dilution to prepare free drug doses. The combination index (CI50) for the two drugs was much more favorable for the 1:1 compared to 2:1 molar ratio, with equal oxaliplatin doses.
# MC38 cells [8] = assay: In vitro cytotoxicity of NCP-2/PTX, MTS; type: cell-based, murine; settings: MC38, drug ratio 1:1; read-out: Oxaliplatin IC50
# Procedure: as §5, §6
# CT26 cells [9] = assay: In vitro cytotoxicity of NCP-2/MTX; type: cell-based, murine; settings: CT26, drug ratio 2:1; read-out: Oxaliplatin IC50
# Procedure: (§7) The cytotoxicity of NCP-2/MTX was evaluated against two syngeneic cancer cell lines:colorectal adenocarcinoma CT26 and colorectal carcinoma MC38. By combining two chemotherapeutic agents with vastly different solubility requirements, NCP-2/MTX elicited substantial anticancer efficacy owing to synergy between the drugs. […] The combination index (CI50) for the two drugs was much more favorable for the 2:1 compared to 1:1 molar ratio, with equal Pt doses.
# MC38 cells [10] = assay: In vitro cytotoxicity of NCP-2/MTX; type: cell-based, murine; settings: MC38, drug ratio 1:1; read-out: Oxaliplatin IC50
# Procedure: as §7
# CT26 cells [11] = assay: Apoptosis/necrosis by Annexin V flow cytometry; type: cell-based, murine; settings: CT26, 24 h, oxaliplatin concentration 10 μM
# Procedure: CT26 cells seeded in 24-well plates at 1×10^5 cells/well were first incubated with NCP-3/DHA or appropriate controls for 24 h at an oxaliplatin concentration of 10 μM. The floating and adherent cells were collected and stained with Alexa Fluor 488 AnnexinV/dead cell apoptosis kit (Invitrogen, USA) according to manufacturer's instructions. The apoptosis and necrosis were examined by a flow cytometry (LSRII Blue, BD, Franklin Lakes, N.J., United States of America).
# CT26 cells [12] = assay: Immunogenic cell death: cell surface CRT by flow cytometry; type: cell-based, murine; settings: CT26, oxaliplatin 10 μM and/or DHA 20 μM, 24 h
# Procedure: In Vitro Immunogenic Cell Death The immunogenic cell death induced by NCP-3/DHA was evaluated by flow cytometry and ELISA. For flow cytometry analysis, CT26 cells were seeded at 1×10^6 cells per well in 6-well plates and further cultured for 24 h. The culture media were replaced by 2 mL of fresh culture media containing 10% FBS. Oxaliplatin, DHA, chol-DHA, oxaliplatin+DHA, NCP-3, Zn/DHA and NCP-3/DHA were added to the cells, respectively, at equivalent oxaliplatin and/or DHA dose of 10 μM and 20 μM, respectively. Cells incubated with PBS served as control. Following incubation of 24 h, the cells were collected, incubated with AlexaFluor 488-CRT antibody for 2 h, and stained with PI. The samples were analyzed by flow cytometer (LSRII Orange, BD, Franklin Lakes, N.J., United States of America) to identify cell surface CRT. The fluorescence intensity of stained cells was gated on PI-negative cells.
# CT26 cells [13] = assay: HMGB-1 release by ELISA; type: cell-based, murine; settings: CT26, oxaliplatin 10 μM and/or DHA 20 μM, 48 h
# Procedure: The release of high mobility group box-1 (HMGB-1) protein after ICD was evaluated by ELISA. CT26 cells were seeded at 1×10^6 cells per well in 6-well plates and further cultured for 24 h. The culture media were replaced by 2 mL of fresh culture media containing 10% FBS. Oxaliplatin, DHA, chol-DHA, oxaliplatin+DHA, NCP-3, Zn/DHA, NCP-3/DHA, and NCP-3/OA-DHA were added to the cells, respectively, at equivalent oxaliplatin and/or DHA dose of 10 μM and 20 μM, respectively. Cells incubated with PBS served as control. Following incubation of 48 h, the supernatant was collected and analyzed by an ELISA kit (Chondrex, Inc., Redmond, Wash., United States of America) by microplate reader.
# CT26 cells [14] = assay: In vitro PDT cytotoxicity; type: cell-based, murine; settings: read-out: Oxaliplatin IC50
# Procedure: (§8) The cytotoxicity of NCP-2@pyrolipid was evaluated against two colorectal cancer cells including murine colorectal adenocarcinoma CT26 and human colorectal adenocarcinoma HT29 cells. By combining chemotherapy of oxaliplatin and PDT modalities into one single nanoparticle, NCP-2@pyrolipid induces apoptosis/necrosis as well as elicit immunogenic cell death upon LED light irradiation. […] However, upon irradiation at 54 J/cm^2 light irradiation (670 nm), the oxaliplatin IC50 of NCP-2@pyrolipid was decreased by ˜4-fold and ˜5-fold in CT26 and HT29 cells, respectively.
# HT29 cells = assay: In vitro PDT cytotoxicity; type: cell-based, human; settings: read-out: Oxaliplatin IC50
# Procedure: as §8
# CT26 cells [15] = assay: In vitro PDT evoked immunogenic cell death (surface CRT); type: cell-based, murine; settings: with or without irradiation, Pt 5 μM, pyrolipid 1.6 μM
# Procedure: Calreticulin (CRT) is a distinct biomarker exposed on the surface of cells undergoing immunogenic cell death (ICD). The immunogenic cell death induced by NCP-2@pyrolipid was evaluated by immunofluorescence and flow cytometry. For immunofluorescence analysis, CT26 cells were seeded at 5×10^5 cells per well in 6-well plates and further cultured for 24 h. The culture media were replaced by 2 mL of fresh culture media containing 10% FBS. Oxaliplatin, NCP-2, NCP-2@pyrolipid, and porphysome were added to the cells, respectively, at an equivalent Pt dose of 5 μM and pyrolipid dose of 1.6 μM. Cells incubated with PBS served as control. After 24-h incubation, the cells were irradiated with LED light (670 nm) at 100 mW/cm^2 for 15 min (equal to 90 J/cm^2). Following further incubation of 4 h, the cells were washed with PBS three times, fixed with 4% paraformaldehyde, incubated with AlexaFluor 488-CRT antibody for 2 h, stained with DAPI, and observed under CLSM using 405 nm and 488 nm lasers for visualizing nuclei and CRT expression on the cell membrane, respectively. […] The samples were analyzed by flow cytometer (LSRII Orange, BD, Franklin Lakes, N.J., United States of America) to identify cell surface CRT. The fluorescence intensity of stained cells was gated on PI-negative cells.
# H82 cells [16] = assay: In vitro cytotoxicity against small cell lung cancer cells, MTS, 96 h; type: cell-based; settings: Homo sapiens, NCI-H82, etoposide concentration
# Procedure: H82 cells seeded on 96-well plates at a density of 2000 cells/well were treated with Zn/ET and free etoposide at various etoposide concentrations for 96 h. The cell viability was then detected by MTS assay (Promega, Madison, Wis., United States of America) and the IC50 values were calculated accordingly. […] ET is likely released from Zn/ET via intracellular reduction by endogenous thiol groups as shown below in Scheme 9.
# H69 cells = assay: In vitro cytotoxicity of NCP-1/ET/siRNA in SCLC, MTS, 72 h; type: cell-based
# Procedure: (§9) Small cell lung cancer (SCLC) cell lines H82 and H69 cells were seeded into 96-well plate at 2000 cells/well for 24 h. Afterwards, cells were treated by cisplatin, ET, cisplatin+ET, NCP-1, NCP-1/ET, and NCP-1/ET/siRNAs at various concentrations and incubated for another 72 h. The cell viability was then determined via MTS assay by microplate reader.
# H82 cells [17] = assay: as above; type: cell-based
# Procedure: as §9
# H460 cells = assay: In vitro cytotoxicity against non-small cell lung cancer cells, MTS, 72 h; type: cell-based; settings: Homo sapiens, NCI-H460
# Procedure: H460 and A549 cells seeded on 96-well plates at a density of 2000 cells/well were treated with Zn/PTX and free PTX at various […] concentrations for 72 h. The cell viability was then detected by MTS assay (Promega, USA) and the IC50 values were calculated accordingly.
# [18] = Mus musculus, CT26, DHA concentration, read-out: DHA IC50
# [19] = Mus musculus, MC-38, MC38, DHA concentration, read-out: DHA IC50
# [20] = CT26, read-out: Oxaliplatin IC50
# [21] = MC38, read-out: Oxaliplatin IC50
smiles,measurement,setting,value
"C[C@H]1[C@@H](O)O[C@@H]2O[C@@]3(C)CC[C@H]4[C@H](C)CC[C@@H]1[C@@]24OO3 [DHA, dihydroartemisinin]",IC50,A2780 cells,300 ± 110 nM
same,IC50,"A2780/CDDP cells [1]; DHA concentration, read-out: IC50 of DHA (numbers in parenthesis)",2.61 ± 0.18 µM
same,IC50,SKOV-3 cells,9.9 ± 0.34 µM
same,IC50,CT26 cells [2]; [18],7.77 ± 2.68 µM
same,IC50,MC38 cells [3]; [19],4.83 ± 1.12 µM
same,IC50,CT26 cells [4]; [18],6.25 ± 1.53 µM
same,IC50,MC38 cells [5]; [19],9.68 ± 1.12 µM
CC(=O)c1cnc2ccc(-c3cc(Cl)c(O)c(Cl)c3)nc2c1N[C@H]1CC[C@H](CN(C)C)CC1 [OTS167],IC50,"A2780/CDDP cells [6]; OTS167 concentration, read-out: IC50, OTS167",0.0121 ± 0.00046 µM
O=C1[O][Pt]2([NH][C@@H]3CCCC[C@H]3[NH]2)[O]C1=O [oxaliplatin],IC50,"CT26 cells [7]; CT26 (cell-line cell empty), drug ratio 2:1",10.2 ± 0.98 µM
same,IC50,"CT26 cells [7]; CT26, drug ratio 1:1",7.05 ± 0.95 µM
same,IC50,MC38 cells [8],3.35 ± 0.13 µM
same,IC50,CT26 cells [9],7.05 ± 0.59 µM
same,IC50,MC38 cells [10],3.35 ± 0.13 µM
same,IC50,CT26 cells [2]; [20],5.77 ± 1.06 µM
same,IC50,MC38 cells [3]; [21],7.87 ± 1.32 µM
same,IC50,CT26 cells [4]; [20],10.3 ± 1.62 µM
same,IC50,MC38 cells [5]; [21],12.8 ± 1.32 µM
same,apoptosis and necrosis,CT26 cells [11],caused necrosis
same,cell surface CRT expression,CT26 cells [12],caused cell surface CRT expression
same,HMGB-1 release,CT26 cells [13],HMGB-1 release
same,IC50,"CT26 cells [14]; CT26, irradiation No",5.05 ± 0.95 µM
same,IC50,"CT26 cells [14]; CT26, irradiation Yes (670 nm, 54 J/cm^2)",4.97 ± 0.49 µM
same,IC50,"HT29 cells; HT29, irradiation No",1440 ± 320 nM
same,IC50,"HT29 cells; HT29, irradiation Yes (670 nm, 54 J/cm^2)",1870 ± 310 nM
same,surface CRT expression,CT26 cells [15],significant amounts of CRT
COc1cc([C@@H]2c3cc4c(cc3[C@@H](O[C@@H]3O[C@@H]5CO[C@@H](C)O[C@H]5[C@H](O)[C@H]3O)[C@H]3COC(=O)[C@H]23)OCO4)cc(OC)c1O [Etoposide],IC50,H82 cells [16],8.83 ± 0.13 µM
same,IC50,"H69 cells; Homo sapiens, NCI-H69",42.2 ± 0.61 µM
same,IC50,"H82 cells [17]; Homo sapiens, NCI-H82",30.9 ± 0.37 µM
"CC(=O)O[C@H]1C(=O)[C@@]2(C)[C@H]([C@H](OC(=O)c3ccccc3)[C@]3(O)C[C@H](OC(=O)[C@H](O)[C@@H](NC(=O)c4ccccc4)c4ccccc4)C(C)=C1C3(C)C)[C@]1(OC(C)=O)CO[C@@H]1C[C@@H]2O [PTX, Paclitaxel]",IC50,H460 cells,10.8 ± 0.44 µM
"N.N.[Cl][Pt][Cl] [Cisplatin, cisplatin]",IC50,"A2780/CDDP cells [1]; cisplatin concentration, read-out: IC50 of cisplatin",19.8 ± 4.01 µM
same,IC50,H69 cells,13.2 ± 0.35 µM
same,IC50,H82 cells [17],7.93 ± 0.7 µM
same,IC50,"A2780/CDDP cells [6]; cisplatin concentration, read-out: IC50, Cisplatin",12.8 ± 0.19 µM
